Values joined by “and” are separate entries in the source; they are usually repeats but may differ in a detail not shown here. Equal values may be shown once.
Legend:
HO-1 = test: Renal cortical HO-1 mRNA (RT-PCR) and protein (ELISA) after IV myoglobin, SnPP or both (Example 1); type: in vivo, mice
Source text: The Glycerol Model of AKI. This is a widely used model of rhabdomyolysis-induced AKI that has been employed worldwide for 50 years. The model was used to test whether prophylactic interventions confer protection against AKI. Basically, the protocol is as follows: Male CD-1 mice (35-45 grams), obtained from Charles River Laboratories, Wilmington, M A were studied. Mice were maintained under standard vivarium conditions and generally housed for 1-3 weeks prior to study. The mice were placed in a cylindrical restraining cage, and then were given a tail vein injection of the test substances (see below) or test substance vehicle. The mice were then returned to their cages. Eighteen hours (hrs) later, the mice were briefly anesthetized by isoflurane inhalation, and given an intramuscular injection of hypertonic (50%) glycerol in a dose of 9 ml/Kg body weight. The dose is divided in two, with half injected into the muscle of each of the hind limbs. The mice were then returned to their cages. Eighteen hrs later, the mice were deeply anesthetized with pentobarbital (50-100 mg/Kg), the abdominal cavity was opened through a midline abdominal incision, a blood sample was obtained from the abdominal vena cava and the kidneys were resected. A kidney cross section was obtained and fixed in formalin for subsequent histologic analysis. The terminal blood samples were analyzed for BUN and creatinine, using commercially available assay kits. The remaining kidney tissue was subjected to cortical dissection, and the cortical tissues were then extracted for protein and RNA. The protein samples were saved for analysis of HO-1 levels, and the RNA samples were subjected to RT-PCR to quantify HO-1 mRNA as well as levels of other stress gene mRNAs (e.g. NGAL, haptoglobin, hemopexin, hepicidin).
Myoglobin+SnPP: To 5 mg of dry myoglobin was added 0.9 ml of PBS+0.1 ml of a stock SnPP solution (50 umole/ml). The resulting final concentrations were 5 mg/ml myoglobin+5 umoles/ml of SnPP. The tail vein was injected with 200 μl of this solution, which equals 1 mg myoglobin+1 umole SnPP. […]
Four hr post myoglobin vs myoglobin+SnPP vs SnPP alone experiments. To confirm that the myoglobin+SnPP has a synergistic effect in inducing HO-1 mRNA and HO-1 protein levels, each of the above combinations have been administered alone via tail vein injection. Four hrs later, the mice were sacrificed as noted above and the kidneys were harvested for assessment of HO-1 mRNA and protein levels. For additional information regarding methods, see Zager et al., Am J Physiol Renal Physiol. 2014 Jul. 30. Pii.

Male CD-1 mice = test: Glycerol model of rhabdomyolysis-induced AKI (Example 4); type: in vivo; details: IV pretreatment 18 hours before glycerol; 18 hours after glycerol
Description: Assessments of cytoresistance. Glycerol model of rhabdomyolysis-induced AKI. Twenty mice were divided into 4 equal groups (controls, mice treated with N-Mgb, SnPP, and mice treated with N-Mgb+SnPP tail vein injections) as described previously. 18 hours later, the mice were briefly anesthetized with isoflurane and immediately injected with 9 mL/kg of 50% glycerol, administered in equally divided doses into each hind limb. At 18 hours after glycerol injection, the mice were anesthetized with pentobarbital, the abdomen was opened, a blood sample for BUN and creatinine assessments was obtained from the vena cava, and the kidneys were resected. The control post-glycerol group and the N-Mgb+SnPP-pretreated glycerol group had kidney sections stained with H&E.
Calculations and statistics. All values are given as the mean […] standard error of the mean. Statistical comparisons were made by unpaired Student's t test. If multiple comparisons were made, the Bonferroni correction was applied. The severity of renal histologic injury in the glycerol AKI model was graded on a […] (least to most severe tubular necrosis and cast formation observed). The histologic results were compared by Wilcoxon rank sum test. Statistical significance was taken as a P value of <0.05.

C=Cc1c2[n-]c(c1C)/C=c1\[n-]/c(c(C)c1C=C)=C\c1[n-]c(c(CCC(=O)O)c1C)/C=c1\[n-]c(c(C)c1CCC(=O)O)=C2.[Sn+4] [SnPP, tin protoporphyrin, reference compound]
HO-1 protein expression (by ELISA), Average (HO-1; cortex, 4 hr IV, 1 mg myoglobin, 1 μmole SnPP, PBS 13.5, carrier 21.5): 34.4 ng HO-1/mg protein | HO-1 protein expression (by ELISA) (HO-1; cortex, 4 hr IV, 1 mg myoglobin, 1 μmole SnPP, individual mice): 31.5 ng HO-1/mg protein and 20.5 ng HO-1/mg protein and 53.6 ng HO-1/mg protein and 32.2 ng HO-1/mg protein | HO-1/GAPDH mRNA, Average (HO-1; kidney, 4 hr post IV injection, control average 1.93): 6.94 | HO-1/GAPDH mRNA (HO-1; kidney, 4 hr post IV injection, individual mice): 9.72 and 8.25 and 6.95 and 2.85 | Protection against glycerol-induced AKI (BUN/creatinine levels) (Male CD-1 mice): virtually no effect

From patent publication US20250195556A1, “COMPOSITIONS, KITS, AND METHODS TO INDUCE ACQUIRED CYTORESISTANCE USING STRESS PROTEIN INDUCERS” (FRED HUTCHINSON CANCER RESEARCH CENTER, priority 2014, published 2025)
